The results in this text go back to patent US20220291236A1, “DETECTION OF DYSTROGLYCAN” (ML Bio Solutions Inc., priority 2021, published 2022).

The experiment has as its system alpha-dystroglycan (αDG). Kind of experiment: Multiplexed Western Blot of total αDG and glycosylated αDG in muscle lysates of P448L mutant FKRP mice untreated or treated with 5% Ribitol. Conditions: 5% Ribitol treated P488L mice compared to untreated P488L mice, heart muscle and TA lysates, region ~50-250 kDa. It is filed as in vivo, mouse. How it is done:
Tissue samples were processed using a TissueLyzer IITM (Qiagen®). Approximately 250 milligrams (mg) of tissue was placed in a 2 mL microtube with a steel bead and 1 mL of Radioimmunoprecipitation assay buffer (RIPA) buffer supplemented with protease and phosphatase inhibitors. The microtubes were subjected to three cycles of disruption (2 minutes at 25 Hertz (Hz)) in the TissueLyzer IITM. Lysates were clarified by centrifugation and the supernatant was transferred to fresh tubes and lysate concentration was determined using a BCA assay (Pierce®). Polyacrylamide gel electrophoresis was carried out on 4-20% […] gels. […] The membrane was visualized on an Odyssey CLxTM imager (LiCorTM) and intensities of the 700 and 800 nm channels were recorded. […] Signal intensities were normalized to total protein and the ratio of 700 nm normalized signal/800 nm normalized signal was determined. Linear fits were assessed where applicable using the linear regression function of PrismTM. Statistical significance was determined using an unpaired t-test using PrismTM. 1) StainFree gel image is quantitated using ImageLabTM software to analyze the image from the ChemiDocTM Imaging System. […] Signal intensities were normalized to total protein and the ratio of 700 nm normalized signal/800 nm normalized signal was determined. Linear fits were assessed were applicable using a linear regression function. […]

Turning to `OC[C@@H](O)[C@@H](O)[C@@H](O)CO` [Ribitol, (2R,3s,4S)-Pentane-1,2,3,4,5-pentol], the “αDG expression (total αDG signal)” value (normalized to C57 untreated control (FIG. 6B)) is on record as “increased”. In addition, the “ratio of glycosylated αDG to total αDG” value (normalized to C57 untreated control (FIG. 6C)) is given as “increased”.
